Test results: US20210145802A1, “THERAPY FOR OPHTHALMOLOGICAL CONDITIONS” (WREN THERAPEUTICS LIMITED, priority 2018, published 2021)

Target: T1, Aβ42 (Homo sapiens, UniProt P05067)
T1 construct: […]; made in house; host or cells: E. coli BL21 Gold (DE3)
Assay: ThT kinetic assay of Aβ42 fibril formation (unseeded)
Format: biochemical
Details: 2 μM Aβ42; 5× drug:protein concentration
From the text: The recombinant Aβ(M1-42) peptide ([…]-SNKGAIIGLMVGGVVIA [SEQ ID NO: 1]), here called Aβ42, was expressed in the E. coli BL21 Gold (DE3) strain (Stratagene, CA, U.S.A.) and purified as described previously with slight modifications. Briefly, the purification procedure involved sonication of E. coli cells, dissolution of inclusion bodies in 8 M urea, and ion exchange in batch mode on diethylaminoethyl cellulose resin and lyophylization. The lyophilized fractions were further purified using Superdex 75 HR 26/60 column (GE Healthcare, Buckinghamshire, U.K.) and eluates were analyzed using SDS-PAGE for the presence of the desired protein product. The fractions containing the recombinant protein were combined, frozen using liquid nitrogen, and lyophilized again.
Except for Netoglitazone, which was custom synthesised by GVK BIO, all small molecules were purchased with a purity greater than 99%. Small molecules were first solubilized in 100% DMSO to a concentration of 5 mM, and then diluted in the peptide solution to reach a final DMSO concentration of maximum 1-3%. We verified that the addition of DMSO in the reaction mixture has no effect on Aβ42 aggregation.
Solutions of monomeric peptides were prepared by dissolving the lyophilized Aβ42 peptide in 6 M GuHCl. Monomeric forms were purified from potential oligomeric species and salt using a Superdex 75 10/300 GL column (GE Healthcare) at a flowrate of 0.5 mL/min, and were eluted in 20 mM sodium phosphate buffer, pH 8 supplemented with 200 μM EDTA and 0.02% NaN3. The centre of the peak was collected, and the peptide concentration was determined from the absorbance of the integrated peak area using ε280=1490 L mol^−1 cm^−1. The obtained monomer was diluted with buffer to the desired concentration and supplemented with 20 μM Thioflavin T (ThT) from a 1 mM stock. All samples were prepared in low binding Eppendorf tubes on ice using careful pipetting to avoid introduction of air bubbles. Each sample was then pipetted into multiple wells of a 96-well half-area, low-binding, clear bottom and PEG coating plate (Corning 3881), 80 μL per well. Aβ42 kinetics have been performed in the absence or the presence of Netoglitazone, Mitoglitazone, Rosiglotazone, Rivoglitazone, Pioglitazone, Ciglitazone, Englitazone, Darglitazone, Troglitazone and B alaglitazone.

T1 sequence (P05067 671-713): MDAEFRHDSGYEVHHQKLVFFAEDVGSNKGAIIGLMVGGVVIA

Row | SMILES | delay of Aβ42 aggregation
1 | Cc1oc(-c2ccccc2)nc1CCC(=O)c1ccc(CC2SC(=O)NC2=O)cc1 (stereo not shown) [Darglitazone] | observed to delay
2 | CCc1ccc(C(=O)COc2ccc(CC3SC(=O)NC3=O)cc2)nc1 (stereo not shown) [Mitoglitazone] | little to no delay
3 | Cn1c(COc2ccc(CC3SC(=O)NC3=O)cc2)nc2ccccc2c1=O (stereo not shown) [Balaglitazone] | little to no delay
4 | COc1ccc2nc(COc3ccc(CC4SC(=O)NC4=O)cc3)n(C)c2c1 (stereo not shown) [Rivoglitazone] | little to no delay
